Experimental data as given in patent EP1964834A1, “Sulphonyltryptophanols” (Bayer Schering Pharma Aktiengesellschaft, priority 2007, dated 2008).

Biological target: T1, human FSH receptor (Homo sapiens, UniProt P23945)
T1 construct: expressed in transfected cells; host or cells: CHO cells (hFSHR clone 16)
T1 sequence (P23945 18-695): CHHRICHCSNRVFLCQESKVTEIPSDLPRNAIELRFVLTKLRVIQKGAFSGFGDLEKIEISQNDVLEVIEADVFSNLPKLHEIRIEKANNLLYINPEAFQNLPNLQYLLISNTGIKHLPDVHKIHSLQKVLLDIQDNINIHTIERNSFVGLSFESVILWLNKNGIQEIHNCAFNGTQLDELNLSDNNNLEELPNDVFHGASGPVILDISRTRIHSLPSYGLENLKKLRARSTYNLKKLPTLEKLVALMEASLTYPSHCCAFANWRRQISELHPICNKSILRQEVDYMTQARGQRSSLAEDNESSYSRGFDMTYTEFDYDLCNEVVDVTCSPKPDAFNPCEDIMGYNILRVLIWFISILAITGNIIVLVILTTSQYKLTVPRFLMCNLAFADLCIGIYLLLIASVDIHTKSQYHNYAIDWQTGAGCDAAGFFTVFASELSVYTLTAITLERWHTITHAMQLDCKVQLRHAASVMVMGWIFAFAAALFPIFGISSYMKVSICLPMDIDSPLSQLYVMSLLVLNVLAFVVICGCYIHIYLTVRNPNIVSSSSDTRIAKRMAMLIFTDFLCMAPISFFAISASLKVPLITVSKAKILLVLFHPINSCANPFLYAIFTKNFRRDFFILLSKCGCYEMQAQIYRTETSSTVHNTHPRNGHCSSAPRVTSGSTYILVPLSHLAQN
Assay: HTRF assay for measuring cAMP in cells (FSH antagonism)
Assay type: cell-based
Details: FSH antagonistic effect; hFSHR clone 16 cells (CHO cells stably transfected with the human FSH receptor); in the presence of 1 e-9 mol/I hFSH; 37°C for 2h
Procedure: HTRF assay for measuring cAMP in cells
The method is based on a competitive immunoassay between native cAMP, which has been produced by the cells, and cAMP which is labelled with cAMPD2 conjugate. The tracer binding was visualized by a monoclonal antibody, anti-cAMP labelled with cryptate [HTRF = homogeneous time-resolved fluorescence]. The specific signal is inversely proportional to the cAMP concentration of the samples employed. The 665nm/ 620nm fluorescence ratio was evaluated.
The following material was used: 96-well plates for the tissue culture, 96-well plates with black edge and black base (e.g. Fluotrac 600 from Greiner), 96-well plates for the substance dilutions of polypropylene and cAMP Femtomolar (4000wells Kit, CIS Bio International # 62AM5PEJ). The following reagents were used: BSA (bovine serum albumin) Fraction V protease-free, IBMX (3-isobutyl-1-methylxanthine), hFSH (human follicle stimulating hormone), Triton X-100 analytical grade, potassium fluoride analytical grade, G 418 (Geneticin) and Accutase. • Buffer 1 (washing and testing buffer) contained PBS, 1 mM CaCl2, 1 mM MgCl2, 0.2% glucose; 0.1% BSA, 1 mM IBMX. • Buffer 2 (2x lysis buffer) contained 1% Triton X-100 in PBS (without CaCl2 and MgCl2). • Buffer 3 (assay buffer) contained 50 mM potassium phosphate buffer (pH 7.0); 800 mM potassium fluoride; 0.2% BSA (always added fresh).
On day 1, the cells were seeded in 96-well plates (3x10^4 cells per well hFSHR clone 16 cells (CHO cells stably transfected with the human FSH receptor in 150 µl of medium). The next day, test substance dilutions were made up. For this purpose, all the substances were diluted in ice-cold buffer 1 (with or without hFSH), and the substance dilutions were placed on ice until applied to the cells.
The cell supernatant was then aspirated off, and the cells were washed 2x with 200 µl of buffer 1. The cells were treated with 60 µl of the appropriate substance concentrations at 37°C for 2h. The cells were then lysed with 60 µl of buffer 2 (put onto the supernatant) (on a plate shaker at RT for 30 min).
The test conjugates (cAMP-D2 and anti-cAMP cryptate, CIS Bio) were diluted in buffer 3 in accordance with the manufacturers' information. The actual mixture for measurement was pipetted into a black 96-well plate (in each case 15 µl of the cell lysate diluted with 35 µl of buffer 1; firstly 25 µl of cAMP-D2 conjugate were pipetted and, after 10 min, 25 µl of the anti-cAMP cryptate were added). This is followed by incubation at RT for 90 minutes. The measurement was carried out in a PheraStar (BMG).
1) hFSHr clone 16 Ham's F12 PSG 10% FCS 700 µg/ml G 418 (Geneticin) from PAA.
Dose-effect curve (hFSH) for the human receptor: 1e-8, 3e-9, 1e-9, 3e-10, 1e-10, 3e-11, 1e-11, 3e-12 mol/l.
The test substances were employed in suitable dilutions in the absence (test for agonism) and in the presence of 1 e-9 mol/I hFSH.
The values of the well ratio were averaged and then entered directly in SigmaPlot versus the concentrations. The maximum and minimum values were determined for each plate, and half the difference is to be regarded as IC50.

| SMILES | IC50 |
| --- | --- |
| CNC(=O)c1ccc(C#Cc2ccc(OC)c(S(=O)(=O)N[C@H](Cc3c[nH]c4ccccc34)C(C)(C)O)c2)cc1 [Example 22, 4-{3-[(R)-2-Hydroxy-1-(1H-indol-3-ylmethyl)-2-methyl-propyisulfamoyl]-4-methoxyphenylethynyl}-N-methyl-benzamide] | 3.5 µM |
| COc1ccc(-c2cc(OC)c(OC)c(OC)c2)cc1S(=O)(=O)N[C@@H](CO)Cc1c[nH]c2ccccc12 [Example 1, 4,3',4',5'-Tetramethoxy-biphenyl-3-sulfonic acid [(R)-2-hydroxy-1-(1H-indol-3-ylmethyl)-ethyl]-amide] | 3.5 µM |

The next lines start with the values.

| IC50 | SMILES |
| --- | --- |
| 0.18 µM | CNC(=O)c1ccc(-c2ccc(OC(C)C)c(S(=O)(=O)N[C@@H](CO)Cc3c[nH]c4ccccc34)c2)cc1Cl [Example 9, 3-Chloro-3'-[(R)-2-hydroxy-1-(1H-indol-3-ylmethyl)-ethylsulfamoyl]-4'-isopropoxybiphenyl-4-carboxylic acid methylamide] |
| 2.5 µM | CNC(=O)c1ccc(C#Cc2ccc(OC)c(S(=O)(=O)N[C@@H](CO)Cc3c[nH]c4ccccc34)c2)cc1 [Example 18, 4-{3-[(R)-2-Hydroxy-1-(1H-indol-3-ylmethyl)-ethylsulfamoyl]-4-methoxyphenylethynyl}-N-methyl-benzamide] |
| 4 µM | CNC(=O)c1ccc(-c2ccc(OC)c(S(=O)(=O)N[C@@H](CO)Cc3c[nH]c4ccccc34)c2)cc1Cl [Example 3, 3-Chloro-3'-[(R)-2-hydroxy-1-(1H-indol-3-ylmethyl)-ethylsulfamoyl]-4'-methoxybiphenyl-4-carboxylic acid me-thylamide] |
